Source: US12161723B2, “Water-based cannabinoid and opioid compositions” (DAY THREE LABS MAN[…]., priority 2014, dated 2024)

Columns and labels:
BSA [1] = target: T1, BSA (Bos taurus, UniProt P02769); assay: Cannabis smoke/vapor passed through BSA/water/ethanol solution, cannabinoid profile (Example 1d); assay type: binding, bovine; details: 33% ethanol, 48 hours incubation, washed
Procedure: (§1) To show which cannabinoid compounds are solubilized in processes using BSA versus organic solvents, cannabis from two different batches was smoked and or vaporized. Vapor was formed using a “volcano” vaporizer at a temperature of 210° C. The smoke/vapor was passed through either a BSA/water/ethanol solution described in example 1b, comprising 33% by volume ethanol or through a pure ethanol (99% ethanol) solution. Solutions were stirred using a magnetic stirrer and were incubated for 48 hours, during which time, most of the ethanol evaporated. One of the batches of cannabis was high in THC, and the other batch of cannabis was high in both THC and CBD.
The BSA/water/ethanol solution was washed after smoke or vapor was combined with it, and the amount of cannabinoids present was analyzed. The results of the comparison of relative concentration of cannabinoids (relative to total cannabinoid content) as expressed in percent (weight/weight), for a strain of cannabis high in THC are shown in the table below.

[2] = Cannabis smoke/vapor passed through pure ethanol, cannabinoid profile (Example 1d); assay type: physicochemical; details: for relative concentration of cannabinoids (relative to total cannabinoid content), Vapor passed through ethanol: vapor at 210° C.
Procedure: as §1

bovine γ-globulin = assay: Cannabis vapor streamed through protein solution, cannabinoids adsorbed (Example 1f); assay type: binding; details: vapor of cannabis high in CBD; 1 mg/ml protein, ethanol:water 1:2, 30° C., 24 hours
Procedure: (§2) The protein solutions were formed using ethanol and water in a 1:2 ratio. The solutions were incubated at 30° C. for 24 hours.

ovalbumin (hen) = target: T2, ovalbumin (hen) (Gallus gallus, UniProt P01012); assay: as above; assay type: binding; details: vapor of cannabis high in CBD; for percentage of each cannabinoid relative to total cannabinoids adsorbed to protein, Ovalbumin: 1 mg/ml protein, ethanol:water 1:2, 30° C., 24 hours
T2 sequence (P01012 1-386): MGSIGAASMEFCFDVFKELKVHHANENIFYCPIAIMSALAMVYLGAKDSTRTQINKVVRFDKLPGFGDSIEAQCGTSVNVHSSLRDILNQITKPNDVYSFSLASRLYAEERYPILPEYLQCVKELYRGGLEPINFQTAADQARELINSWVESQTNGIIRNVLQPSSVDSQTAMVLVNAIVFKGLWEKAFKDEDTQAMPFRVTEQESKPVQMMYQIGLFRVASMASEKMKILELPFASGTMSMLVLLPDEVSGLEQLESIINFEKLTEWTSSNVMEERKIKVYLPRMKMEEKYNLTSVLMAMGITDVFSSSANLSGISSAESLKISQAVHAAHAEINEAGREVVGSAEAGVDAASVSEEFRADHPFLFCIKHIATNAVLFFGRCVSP
Procedure: as §2

[3] = target: T3, rice recombinant human serum albumin (HSA) (Homo sapiens, UniProt P02768); assay: as above; assay type: binding; details: vapor of cannabis high in CBD; 1 mg/ml protein, ethanol:water 1:2, 30° C., 24 hours
T3 construct: host or cells: rice (recombinant expression host)
T3 sequence (P02768 25-609): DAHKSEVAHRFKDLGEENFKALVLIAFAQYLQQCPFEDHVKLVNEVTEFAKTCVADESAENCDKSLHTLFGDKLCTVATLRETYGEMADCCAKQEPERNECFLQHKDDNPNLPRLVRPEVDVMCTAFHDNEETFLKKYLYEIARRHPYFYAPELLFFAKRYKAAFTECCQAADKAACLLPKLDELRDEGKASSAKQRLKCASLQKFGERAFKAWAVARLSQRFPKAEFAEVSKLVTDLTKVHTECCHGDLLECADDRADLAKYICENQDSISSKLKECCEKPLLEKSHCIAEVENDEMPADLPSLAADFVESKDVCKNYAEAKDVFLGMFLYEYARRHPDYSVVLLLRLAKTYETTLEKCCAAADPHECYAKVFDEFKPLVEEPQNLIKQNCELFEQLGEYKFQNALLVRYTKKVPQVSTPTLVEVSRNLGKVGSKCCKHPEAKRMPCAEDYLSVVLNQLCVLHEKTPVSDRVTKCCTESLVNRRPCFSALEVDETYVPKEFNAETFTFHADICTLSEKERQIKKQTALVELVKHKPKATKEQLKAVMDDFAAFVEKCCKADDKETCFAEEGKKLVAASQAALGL
Procedure: as §2

[4] = Cannabinoid content of cannabis extract (Example 2a); assay type: physicochemical; details: methanol/chloroform 9:1 cannabis extract
Procedure: (§3) Cannabis extract was prepared as follows: In short, cannabis plant matter is dried, ground and homogenized to form ground cannabis. The ground cannabis is extracted with methanol/chloroform (volume/volume ratio of 9:1). Sonication and filtration is then performed. Identity of cannabinoids is determined by HPLC by evaporation, dissolution in an appropriate solvent.
(§4) Drying of the cannabis plant matter occurs under high vacuum at about 37±2° C. for about 24 hours and then ground to form a fine powder. 200 mg of ground powder is combined with 10 ml of methanol/chloroform, and sonicated in an ice bath for 30 minutes at maximum power. The supernatant is then filtered through a 0.2 micron filter.
(§5) A sample of the cannabis extract was analyzed for content of cannabinoids. The cannabis extract was then combined with albumin solution having 20% ethanol at 10 mg/ml (BSA) and incubated for 2 hours at room temperature.

BSA [5] = target: T1, BSA; assay: Cannabis extract combined with albumin solution, cannabinoids adsorbed to BSA (Example 2a); assay type: binding, bovine; details: albumin solution 10 mg/ml (BSA) with 20% ethanol, 2 hours at room temperature
Procedure: as §3, §4, §5

albumin (BSA) = albumin (BSA) (Bos taurus, UniProt P02769); assay: Ethanolic cannabinoid solution mixed with aqueous albumin, protein-bound cannabinoid quantified (Example 2b); assay type: binding, bovine; parameters: protein-bound cannabinoid quantified, Vapor: unit not given beside the values; details: 100 microliters ethanolic solution + 500 microliters 5 mg/ml BSA, 30° C., 12 hours, non-adsorbed cannabinoids separated
Sequence of albumin (BSA) (P02769 25-607): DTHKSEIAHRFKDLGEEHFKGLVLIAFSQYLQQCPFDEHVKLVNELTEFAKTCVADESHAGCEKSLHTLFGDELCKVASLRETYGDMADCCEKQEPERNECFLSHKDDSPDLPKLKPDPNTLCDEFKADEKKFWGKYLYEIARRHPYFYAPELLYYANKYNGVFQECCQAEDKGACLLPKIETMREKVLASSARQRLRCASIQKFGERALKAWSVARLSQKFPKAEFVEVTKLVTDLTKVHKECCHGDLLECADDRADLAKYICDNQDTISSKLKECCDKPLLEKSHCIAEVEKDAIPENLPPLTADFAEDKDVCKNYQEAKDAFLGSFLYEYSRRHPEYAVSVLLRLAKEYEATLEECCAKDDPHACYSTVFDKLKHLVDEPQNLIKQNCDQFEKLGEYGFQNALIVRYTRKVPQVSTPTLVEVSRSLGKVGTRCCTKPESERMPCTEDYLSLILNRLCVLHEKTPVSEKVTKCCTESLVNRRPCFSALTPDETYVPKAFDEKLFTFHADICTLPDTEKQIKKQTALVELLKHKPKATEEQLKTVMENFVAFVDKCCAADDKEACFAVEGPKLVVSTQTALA
Procedure: 100 microliters of ethanolic cannabinoid solution from cannabis vapor and cannabis smoke were each mixed with 500 microliters of aqueous albumin solution that had been prepared at a concentration of 5 mg albumin (BSA)/ml. The aqueous albumin solution combined with the ethanolic cannabinoid solution was incubated at 30° C. for 12 hours in open tubes. After 12 hours, the tubes were mixed and centrifuged, and non-adsorbed cannabinoids were separated from the solution. Concentrated protein-bound cannabinoid was dried and quantified as described below.

[6] = 3 g high THC strain; 200 ml ethanol concentrated to about 3 ml
[7] = strain of cannabis high in CBD and THC

T1 sequence (P02769 25-607): as above

| Molecule | relative concentration of cannabinoids (relative to total cannabinoid content), Smoke passed through BSA/water/ethanol (BSA [1]; [7]) | relative concentration of cannabinoids (relative to total cannabinoid content), Vapor passed through BSA/water/ethanol (BSA [1]; [7]) | relative concentration of cannabinoids (relative to total cannabinoid content), Smoke passed through BSA/water/ethanol (BSA [1]; strain of cannabis high in THC) | relative concentration of cannabinoids (relative to total cannabinoid content), Smoke passed through ethanol [2, 7] | relative concentration of cannabinoids (relative to total cannabinoid content), Vapor passed through ethanol [2, 7] | relative concentration of cannabinoids (relative to total cannabinoid content), Smoke passed through ethanol ([2]; strain of cannabis high in THC) | relative concentration of cannabinoids (relative to total cannabinoid content), Vapor passed through ethanol ([2]; strain of cannabis high in THC) | percentage of each cannabinoid relative to total cannabinoids adsorbed to protein, Bovine γ-globulin (bovine γ-globulin) [percentage] | percentage of each cannabinoid relative to total cannabinoids adsorbed to protein, Ovalbumin (ovalbumin (hen)) [percentage] | percentage of each cannabinoid relative to total cannabinoids adsorbed to protein, Rice recombinant HSA [3] [percentage] | percentage of each cannabinoid relative to total cannabinoids, Extract [4] [percentage] | percentage of each cannabinoid relative to total cannabinoids adsorbed to protein, Adsorbed to BSA after extract combined with BSA solution (BSA [5]) [percentage] | protein-bound cannabinoid quantified, Smoke (albumin (BSA)) | protein-bound cannabinoid quantified, Vapor (albumin (BSA)) | amount of cannabinoids dissolved in ethanol, Smoke [6] [micrograms/ml] | amount of cannabinoids dissolved in ethanol, Vapor [6] [micrograms/ml] | cannabinoid adsorbed per mg of protein (ovalbumin (hen); 1 mg/ml ovalbumin) |
| --- | --- | --- | --- | --- | --- | --- | --- | --- | --- | --- | --- | --- | --- | --- | --- | --- | --- |
| C=C(C)[C@@H]1CCC(C)=C[C@H]1c1c(O)cc(CCCCC)cc1O [CBD, cannabidiol, reference compound] | 22.3 percent (weight/weight) | 33.4 percent (weight/weight) | 0.0 percent (weight/weight) | 44.7 percent (weight/weight) | 51.1 percent (weight/weight) | 1.9 percent (weight/weight) | 0.3 percent (weight/weight) | 0 | 55.9 | 33 | 0 | 0 | 0 | 0 | 0 | 17.2726 | – |
| C=C(C)[C@@H]1CCC(C)=C[C@H]1c1c(O)cc(CCCCC)c(C(=O)O)c1O [CBDA, cannabidiolic acid] | 39.8 percent (weight/weight) | 23.6 percent (weight/weight) | 0.0 percent (weight/weight) | 2.3 percent (weight/weight) | 1.6 percent (weight/weight) | 0.9 percent (weight/weight) | 0.4 percent (weight/weight) | 0 | 2.4 | 46 | 1 | 0 | 0 | 0 | 0 | 3.1218 | – |
| CCCCCc1cc(O)c(C/C=C(\C)CCC=C(C)C)c(O)c1 [CBG, cannabigerol] | 0.0 percent (weight/weight) | 0.0 percent (weight/weight) | 21.0 percent (weight/weight) | 4.2 percent (weight/weight) | 1.5 percent (weight/weight) | 4.9 percent (weight/weight) | 1.2 percent (weight/weight) | 0 | 0 | 0 | 3 | 1 | 5.9 | 11.685 | 292.063 | 183.6224 | – |
| CCCCCc1cc(O)c2c(c1)OC(C)(C)[C@@H]1CC=C(C)C[C@@H]21 [DELTA-8-THC] | 0.0 percent (weight/weight) | 0.0 percent (weight/weight) | 0.0 percent (weight/weight) | 0.0 percent (weight/weight) | 0.0 percent (weight/weight) | 0.0 percent (weight/weight) | 0.0 percent (weight/weight) | – | – | – | – | – | 0 | 4.6 | 0 | 0 | – |
| CCCc1cc(O)c2c(c1)OC(C)(C)[C@@H]1CCC(C)=C[C@@H]21 [THCV, tetrahydrocannabivarin] | 0.0 percent (weight/weight) | 0.0 percent (weight/weight) | 0.0 percent (weight/weight) | 2.4 percent (weight/weight) | 0.8 percent (weight/weight) | 2.4 percent (weight/weight) | 0.7 percent (weight/weight) | – | – | – | – | – | – | – | – | – | – |
| ovalbumin: ovalbumin (hen) (protein, UniProt P01012 2-386, looked up) Ovalbumin: GSIGAASMEFCFDVFKELKVHHANENIFYCPIAIMSALAMVYLGAKDSTRTQINKVVRFDKLPGFGDSIEAQCGTSVNVHSSLRDILNQITKPNDVYSFSLASRLYAEERYPILPEYLQCVKELYRGGLEPINFQTAADQARELINSWVESQTNGIIRNVLQPSSVDSQTAMVLVNAIVFKGLWEKAFKDEDTQAMPFRVTEQESKPVQMMYQIGLFRVASMASEKMKILELPFASGTMSMLVLLPDEVSGLEQLESIINFEKLTEWTSSNVMEERKIKVYLPRMKMEEKYNLTSVLMAMGITDVFSSSANLSGISSAESLKISQAVHAAHAEINEAGREVVGSAEAGVDAASVSEEFRADHPFLFCIKHIATNAVLFFGRCVSP | – | – | – | – | – | – | – | – | – | – | – | – | – | – | – | – | about 4 micrograms of cannabinoid per mg of protein |
